Reference: PubChem BioAssay AID493130 (Broad Institute, 2011)
Records with an inconclusive call do not appear. Calls of active or inactive are those of the source.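 The calls were made as follows: active = signal-lowering compounds whose fitted half-maximal concentration is at most ten times their highest tested dose; inconclusive = flat fit between -30 and -70%, or poor fit; inactive = flat within 30%, signal rising, or potency beyond limit.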

These molecules were tested against POS-1 (Caenorhabditis elegans) binding to mex-3 RNA (assay: inhibitors of POS-1/mex-3 RNA binding, dose response, counter-screen for MEX-5 RNA-binding inhibitor project, biochemical, fluorescence polarization, cherry-picked samples, set 2 (AID 493130;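 also: POS-1 as maltose binding protein fusion made in E. coli with FITC RNA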)). Settings: POS-1/mex-3 RNA fluorescence polarization, 1 h.

Structure (SMILES) | AC50
Oc1ccc(/C=N/NC(=S)Nc2cccnc2)cc1O | 9.5 µM
O=C1CSC(=S)N1/N=C/c1cc(Br)c(O)c(Br)c1 | 10.2 µM
COCCCNC(=O)c1ccc2c3c(onc13)-c1ccccc1C2=O | 0.186 µM
Cc1occc1C(=O)N/N=C/C1=C(N2CCOCC2)C(=C\c2ccc(Cl)cc2Cl)/CC1 | 8.21 µM
N#CC1(C#N)C(c2ccccc2)OC23CCCCC2C1(C#N)C(=N)O3 (stereo not drawn) | 4.61 µM
Nc1ccc(N(CCO)CCO)cc1 | 6.49 µM
O=C(O)c1ccc(Cl)c2c1C1C=CCC1C(c1ccccn1)N2 (stereo not drawn) | 8.69 µM
Cc1cc(=O)n2[nH]c(=O)c(N=Nc3ccccc3)c2[nH]1 | 0.306 µM
CC(=O)Nc1ccc2cc3ccc(NC(C)=O)cc3nc2c1 | 6.38 µM
O=c1nc2c(O)cccn2c2c1c(=O)[nH]c1ccccc12 | 2.46 µM

Same assay, conditions: POS-1/mex-3 RNA fluorescence polarization, 1 h; at 10 µM (top of the series)

Structure (SMILES) | activity change, negative = inhibition
COc1ccc(N(CCC#N)C(=O)/C(C#N)=C/c2cccs2)cc1 | inactive
COc1ccc2nc3ccccc3nc2c1N | inactive
O=C(/C=C/Nc1ccc(S(=O)(=O)Nc2cnc3ccccc3n2)cc1)c1ccccc1 | inactive
CCCCN(C(=O)c1ccc([N+](=O)[O-])o1)c1c(N)n(CCCC)c(=O)[nH]c1=O | inactive
COc1ccc(NC(=O)c2cccs2)cn1 | inactive
COc1ccc(/C=N/NC(=S)Nc2cccc(C(=O)O)c2)cc1 | inactive
O=[As](O)(O)c1ccc(N=Nc2ccc(O)cc2)cc1 | inactive
NC1=NC(=O)/C(=C\C=C\c2ccccc2)S1 | inactive
N#C/C(=N\Nc1cccc(C(F)(F)F)c1)C(=O)c1ccsc1 | inactive
Cc1nn(C)cc1C(=O)NNC(=S)Nc1ccccc1 | inactive
Nc1c(C(=O)Nc2ccccc2F)sc2nc(-c3cccnc3)ccc12 | inactive
CCOc1ccc(/C=N/n2c(C)nc3ccccc3c2=O)cc1 | inactive
CC(C)CNC(=O)c1ccccc1Oc1ccccc1 | inactive
COc1ccc(N(C(=O)CCl)C(C)(C(=O)Nc2c(C)cccc2C)c2ccccn2)cc1 (stereo not drawn) | inactive
Cc1c(C(=O)NNC(=S)Nc2ccc(S(N)(=O)=O)cc2)oc2ccccc12 | inactive
Cc1cc(C)c[n+](-c2nc([O-])sc2C=O)c1 | inactive
CC(=O)Nc1ccc(N=NC2C(=O)N(C(N)=S)N=C2C)cc1 (stereo not drawn) | inactive
CCOc1ccccc1C1NC(=O)NC(C)=C1C(=O)OCc1ccccc1 (stereo not drawn) | inactive
O=C(Cc1csc(N2CCOCC2)n1)N/N=C/c1ccc(O)c(O)c1O | inactive
CCCCn1c(O)c(N=Nc2ccccn2)c2ccccc21 | inactive
COc1cc(/C=C/c2nc(-c3ccccc3O)n[nH]2)cc(OC)c1OC | inactive
Cc1ccc(-c2ccc(/C=N/N=C3/NC(=O)C(CC(=O)O)S3)o2)c([N+](=O)[O-])c1 (stereo not drawn) | inactive

Structure (SMILES) | activity change, negative = inhibition
CCN(CC)c1ccc(/C=N/NC(=O)c2cccc(S(=O)(=O)Nc3ccccc3OC)c2)c(O)c1 | inactive
CC1(C)CC(=O)C2=C(C1)Nc1cc(Cl)ccc1S2 | inactive
CC1(C)NC(=O)NC2(C)NC(=O)NC(C)(C)C12 (stereo not drawn) | inactive
COc1ccc(C(=O)N2C(=S)NC(=O)/C2=C\c2ccc(C)cc2)cc1 | inactive
CCN(CC)c1ccc(N2C(=O)c3ccccc3C2=O)cc1 | inactive
CCOC(=O)Cc1csc(NC(=O)c2sc3nc4c(C)cc(C)cc4cc3c2N)n1 | inactive
Cc1ccc2cc(C#N)c(N3CCCN(C(=O)C4CCCO4)CC3)nc2c1C (stereo not drawn) | inactive
O=C(NNC(=O)c1cccs1)c1csc(N2CCOCC2)n1 | inactive
O=C(CSc1nnc(COc2ccccc2)o1)Nc1nccs1 | inactive
O=C(O)/C=C/C(=O)NNc1ncnc2ccccc12 | inactive
S=c1[nH]cnc2sc(Nc3ccccc3)nc12 | inactive
COc1ccc(C2c3sc(=O)[nH]c3SCC2C(N)=O)cc1 (stereo not drawn) | inactive
CCCCn1c(N)c(N(Cc2ccccc2OC)C(=O)C(C)C)c(=O)[nH]c1=O | inactive
Oc1sc(C=Nc2ccc(F)cc2)c2ccccc12 | inactive
CCOC(=O)Cc1csc(NC(=O)c2sc3nc4ccc(C)cc4cc3c2N)n1 | inactive
Cc1cc(C)cc(N2C(=O)NC(=O)/C(=C/c3cccn3-c3ccc(Cl)cc3)C2=O)c1 | inactive
COc1ccc2cc(/C=C3\SC(=S)NC3=O)c(N3CCOCC3)nc2c1 | inactive
N=C(N)N=Nc1c(O)[nH]c2ccc(Br)cc12 | inactive
COc1cc(/C=N/NC(=O)c2ccc(=O)[nH]n2)ccc1O | inactive
O=C(O)c1ccc(NC2=C(Cl)C(=O)c3ccccc3C2=O)cc1 | inactive
Cc1c(C(=O)O)c(C(=O)O)nc2ccc(N3CCOCC3)cc12 | inactive
COCC(C)N1CCC(n2nccc2NC(=O)CCCc2ccccc2)CC1 (stereo not drawn) | inactive

Structure (SMILES) | activity change, negative = inhibition
CC1=NN2C(=N)/C(=C\c3ccc(SCc4ccccc4)o3)C(=O)N=C2S1 | inactive
CCc1nc2ccccc2c(=O)n1/N=C/c1ccc(OC)cc1 | inactive
Cc1cc(/C=C2\C(=O)NC(=O)N(c3cccc(Br)c3)C2=O)c(C)n1C | inactive
O=C(N/N=C/c1cccnc1)c1ccc(O)cc1 | inactive
COC(=O)c1cc2c(-c3ccccc3)cc3ccccn3c-2c1C(=O)OC | inactive
CC(C)(C)OC(=O)NCCCC1=CC2=CC(=O)C(C)(O)C(=O)C2=CO1 (stereo not drawn) | inactive
O=C1/C(=C\c2ccc(Br)cc2)SC(=S)N1NS(=O)(=O)c1ccccc1 | inactive
COc1ccccc1N1C(=O)S/C(=C\c2cccs2)C1=O | inactive
CN=c1scc(-c2ccco2)n1/N=C/c1ccc(O)c(O)c1 | inactive
C/C=C(\C)CN1CCC(n2nccc2NC(=O)CCCc2ccccc2)CC1 | inactive
CN(C)S(=O)(=O)c1ccc(Cl)c(C(=O)Nc2cccc3ncccc23)c1 | inactive
O=C(NC1CCSc2ccccc21)c1ccccc1Br (stereo not drawn) | inactive
Cc1cc(C)c2cc3c(N)c(C(=O)N4CCc5ccccc5C4)sc3nc2c1 | inactive
O=C(Nc1ccc(S(=O)(=O)Nc2nccs2)cc1)c1ccc(N2C(=O)c3ccccc3C2=O)cc1 | inactive
COc1cccc(C2C=C(c3cccs3)Nc3ncnn32)c1OC (stereo not drawn) | inactive
Cc1cc(/C=C(\C#N)c2nc3ccccc3[nH]2)c(C)n1C | inactive
Cc1cccc(-n2c(N)c(-c3nc4ccccc4n3C)c3nc4ccccc4nc32)c1 | inactive
Cn1c(=O)n(C)c2cc(/C=N/N=C3/NC(=O)C(CC(=O)O)S3)ccc21 (stereo not drawn) | inactive
O=C(O)c1ccc2c(c1)ncn2C1CCCCC1 | inactive
Cc1nc2cc(C(=O)O)ccc2n1-c1ccc(F)cc1F | inactive
CC(=O)c1cc(NC(=O)c2ccc([N+](=O)[O-])cc2)c(=O)oc1C | inactive
CCCn1c(=N)c(C(=O)NC2CCCC2)cc2c(=O)n3cccc(C)c3nc21 | inactive

Structure (SMILES) | activity change, negative = inhibition
CCCCN(C(=O)C1=COCCO1)c1c(N)n(Cc2ccccc2)c(=O)[nH]c1=O | inactive
CCOC(=O)C1=C(C)N=c2s/c(=C\c3cccn3C)c(=O)n2C1c1cccc(OC)c1OC (stereo not drawn) | inactive
CCCc1nc2c(=O)n(C)c(=O)[nH]c2n1C | inactive
Cc1cccc2c(N=Nc3ccccc3)c(O)[nH]c12 | inactive
CCOc1ccc(/C=C/C(=O)c2ccccc2)cc1 | inactive
Cc1ccc(S(=O)(=O)c2cc3c(=O)n4ccccc4nc3n(C3CCCCC3)c2=N)cc1 | inactive
O=Cc1ccc2ccc3cccnc3c2n1 | inactive
Cc1cc(-c2nnc(SCC(=O)Nc3nccs3)o2)no1 | inactive
Nc1cnccc1C(=O)O | inactive
O=c1[nH]cnc2c1C(c1ccccc1[N+](=O)[O-])c1c(nc[nH]c1=O)O2 | inactive
CC(C)(C)CC(C)(C)NCC(O)COc1ccc2c(c1)CCC2 (stereo not drawn) | inactive
COC(=O)c1ccc(CC(=O)c2c(C)cc(O)cc2O)o1 | inactive
CN(C)c1ccc(/C=C/c2nc3ccccc3c(=O)[nH]2)cc1 | inactive
O=C(NNC(=O)c1ccc([N+](=O)[O-])o1)c1ccccc1 | inactive
Cc1snc2sc(C(=O)c3ccc(Br)cc3)c(N)c12 | inactive
COc1ccc(N=C2S/C(=C\c3cc(C)n(C)c3C)C(=O)N2C)cc1 | inactive
COc1ccc(OC)c(/C=N/NC(=O)c2ccc(=O)[nH]n2)c1 | inactive
COc1ccc(/C=N/NC(=O)c2ccc(=O)[nH]n2)cc1OC | inactive
CN(C)c1ccc(/C=C(\C#N)C(=O)c2ccccc2)cc1 | inactive
Cn1ncc2c(NNC(=O)c3ccccc3Cl)ncnc21 | inactive
Cc1cccc(C(=O)NNC(=O)c2ccco2)c1O | inactive
COc1ccccc1C(=O)NNC(=O)c1csc(N2CCOCC2)n1 | inactive
